{"source": "PubChem BioAssay AID1745844", "about": "(Carcinogenic Potency Database (CPDB), 2022)", "tested_on": "rodent lifetime carcinogenesis bioassay, tumor incidence TD50", "test": "chronic cancer bioassays in animals – CPDB, compiled studies (AID 1745844)", "settings": "mouse, study length 104 weeks", "note": "Active and inactive are the calls of the source. The rule behind the calls is not given here.", "data": [{"smiles": "ClCCl", "values": [{"measurement": "TD50", "setting": "strain B6C3F1, females, inhaled, site: any site (literature study), lesion: several types, types named in the paper, dosed 102 weeks", "result": 1020, "unit": "mg/kg/day"}, {"measurement": "TD50", "setting": "strain B6C3F1, females, inhaled, site: liver + lung, lesion: hepatocellular adenoma + hepatocellular carcinoma + alveolar/bronchiolar adenoma + alveolar/bronchiolar carcinoma, dosed 102 weeks", "result": 817, "unit": "mg/kg/day"}, {"measurement": "TD50", "setting": "strain B6C3F1, females, inhaled, site: liver, lesion: hepatocellular adenoma + hepatocellular carcinoma + neoplastic nodule, dosed 102 weeks", "result": 1430, "unit": "mg/kg/day"}, {"measurement": "TD50", "setting": "strain B6C3F1, females, inhaled, site: liver, lesion: hepatocellular adenoma + hepatocellular carcinoma, dosed 102 weeks", "result": 1430, "unit": "mg/kg/day"}, {"measurement": "TD50", "setting": "strain B6C3F1, females, inhaled, site: liver, lesion: hepatocellular adenoma, dosed 26 weeks", "result": 2570, "unit": "mg/kg/day"}, {"measurement": "TD50", "setting": "strain B6C3F1, females, inhaled, site: liver, lesion: hepatocellular adenoma, dosed 52 weeks", "result": 6250, "unit": "mg/kg/day"}, {"measurement": "TD50", "setting": "strain B6C3F1, females, inhaled, site: liver, lesion: hepatocellular adenoma, dosed 78 weeks", "result": 2780, "unit": "mg/kg/day"}, {"measurement": "TD50", "setting": "strain B6C3F1, females, inhaled, site: liver, lesion: hepatocellular adenoma, dosed 102 weeks", "result": 3170, "unit": "mg/kg/day"}, {"measurement": "TD50", "setting": "strain B6C3F1, females, inhaled, site: liver, lesion: hepatocellular adenoma, dosed 104 weeks", "result": 4860, "unit": "mg/kg/day"}, {"measurement": "TD50", "setting": "strain B6C3F1, females, inhaled, site: liver, lesion: hepatocellular carcinoma, dosed 26 weeks", "result": 6790, "unit": "mg/kg/day"}, {"measurement": "TD50", "setting": "strain B6C3F1, females, inhaled, site: liver, lesion: hepatocellular carcinoma, dosed 52 weeks", "result": 4960, "unit": "mg/kg/day"}, {"measurement": "TD50", "setting": "strain B6C3F1, females, inhaled, site: liver, lesion: hepatocellular carcinoma, dosed 78 weeks", "result": 4020, "unit": "mg/kg/day"}, {"measurement": "TD50", "setting": "strain B6C3F1, females, inhaled, site: liver, lesion: hepatocellular carcinoma, dosed 102 weeks", "result": 1850, "unit": "mg/kg/day"}, {"measurement": "TD50", "setting": "strain B6C3F1, females, inhaled, site: liver, lesion: hepatocellular carcinoma, dosed 104 weeks", "result": 2750, "unit": "mg/kg/day"}, {"measurement": "TD50", "setting": "strain B6C3F1, females, inhaled, site: liver, lesion: several types, types named in the paper, dosed 26 weeks", "result": 1840, "unit": "mg/kg/day"}, {"measurement": "TD50", "setting": "strain B6C3F1, females, inhaled, site: liver, lesion: several types, types named in the paper, dosed 52 weeks", "result": 2850, "unit": "mg/kg/day"}, {"measurement": "TD50", "setting": "strain B6C3F1, females, inhaled, site: liver, lesion: several types, types named in the paper, dosed 78 weeks", "result": 1730, "unit": "mg/kg/day"}, {"measurement": "TD50", "setting": "strain B6C3F1, females, inhaled, site: liver, lesion: several types, types named in the paper, dosed 104 weeks", "result": 1740, "unit": "mg/kg/day"}, {"measurement": "TD50", "setting": "strain B6C3F1, females, inhaled, site: lung, lesion: adenoma, dosed 26 weeks", "result": 3400, "unit": "mg/kg/day"}, {"measurement": "TD50", "setting": "strain B6C3F1, females, inhaled, site: lung, lesion: adenoma, dosed 52 weeks", "result": 3810, "unit": "mg/kg/day"}, {"measurement": "TD50", "setting": "strain B6C3F1, females, inhaled, site: lung, lesion: adenoma, dosed 78 weeks", "result": 3590, "unit": "mg/kg/day"}, {"measurement": "TD50", "setting": "strain B6C3F1, females, inhaled, site: lung, lesion: alveolar/bronchiolar adenoma + alveolar/bronchiolar carcinoma, dosed 102 weeks", "result": 917, "unit": "mg/kg/day"}, {"measurement": "TD50", "setting": "strain B6C3F1, females, inhaled, site: lung, lesion: alveolar/bronchiolar adenoma, dosed 102 weeks", "result": 1420, "unit": "mg/kg/day"}, {"measurement": "TD50", "setting": "strain B6C3F1, females, inhaled, site: lung, lesion: alveolar/bronchiolar adenoma, dosed 104 weeks", "result": 5020, "unit": "mg/kg/day"}, {"measurement": "TD50", "setting": "strain B6C3F1, females, inhaled, site: lung, lesion: alveolar/bronchiolar carcinoma, dosed 102 weeks", "result": 1690, "unit": "mg/kg/day"}, {"measurement": "TD50", "setting": "strain B6C3F1, females, inhaled, site: lung, lesion: alveolar/bronchiolar carcinoma, dosed 104 weeks", "result": 2670, "unit": "mg/kg/day"}, {"measurement": "TD50", "setting": "strain B6C3F1, females, inhaled, site: lung, lesion: carcinoma, dosed 26 weeks", "result": 1650, "unit": "mg/kg/day"}, {"measurement": "TD50", "setting": "strain B6C3F1, females, inhaled, site: lung, lesion: carcinoma, dosed 52 weeks", "result": 952, "unit": "mg/kg/day"}, {"measurement": "TD50", "setting": "strain B6C3F1, females, inhaled, site: lung, lesion: carcinoma, dosed 78 weeks", "result": 2830, "unit": "mg/kg/day"}, {"measurement": "TD50", "setting": "strain B6C3F1, females, inhaled, site: lung, lesion: several types, types named in the paper, dosed 26 weeks", "result": 1280, "unit": "mg/kg/day"}, {"measurement": "TD50", "setting": "strain B6C3F1, females, inhaled, site: lung, lesion: several types, types named in the paper, dosed 52 weeks", "result": 804, "unit": "mg/kg/day"}, {"measurement": "TD50", "setting": "strain B6C3F1, females, inhaled, site: lung, lesion: several types, types named in the paper, dosed 78 weeks", "result": 1520, "unit": "mg/kg/day"}, {"measurement": "TD50", "setting": "strain B6C3F1, females, inhaled, site: lung, lesion: several types, types named in the paper, dosed 104 weeks", "result": 1650, "unit": "mg/kg/day"}, {"measurement": "TD50", "setting": "strain B6C3F1, females, inhaled, site: thyroid gland, lesion: follicular-cell adenoma, dosed 102 weeks", "result": 15800, "unit": "mg/kg/day"}, {"measurement": "TD50", "setting": "strain B6C3F1, males, in drinking water, site: liver, lesion: hepatocellular adenoma, dosed 104 weeks", "result": "2900 mg/kg/day (inactive)"}, {"measurement": "TD50", "setting": "strain B6C3F1, males, in drinking water, site: liver, lesion: hepatocellular carcinoma, dosed 104 weeks", "result": "2350 mg/kg/day (inactive)"}, {"measurement": "TD50", "setting": "strain B6C3F1, males, in drinking water, site: liver, lesion: several types, types named in the paper, dosed 104 weeks", "result": "1310 mg/kg/day (inactive)"}, {"measurement": "carcinogen call", "setting": "strain B6C3F1, males, in drinking water, site: thyroid gland, lesion: one or several types, types not named, dosed 104 weeks", "result": "negative (inactive)"}, {"measurement": "TD50", "setting": "strain B6C3F1, males, inhaled, site: all sites, lesion: hemangioma + hemangiosarcoma, dosed 102 weeks", "result": 13200, "unit": "mg/kg/day"}, {"measurement": "TD50", "setting": "strain B6C3F1, males, inhaled, site: all sites, lesion: hemangiosarcoma, dosed 102 weeks", "result": 12900, "unit": "mg/kg/day"}, {"measurement": "TD50", "setting": "strain B6C3F1, males, inhaled, site: any site (literature study), lesion: several types, types named in the paper, dosed 102 weeks", "result": 1160, "unit": "mg/kg/day"}, {"measurement": "TD50", "setting": "strain B6C3F1, males, inhaled, site: liver + lung, lesion: hepatocellular adenoma + hepatocellular carcinoma + alveolar/bronchiolar adenoma + alveolar/bronchiolar carcinoma, dosed 102 weeks", "result": 1090, "unit": "mg/kg/day"}, {"measurement": "TD50", "setting": "strain B6C3F1, males, inhaled, site: liver, lesion: hepatocellular adenoma + hepatocellular carcinoma + neoplastic nodule, dosed 102 weeks", "result": 1800, "unit": "mg/kg/day"}, {"measurement": "TD50", "setting": "strain B6C3F1, males, inhaled, site: liver, lesion: hepatocellular adenoma + hepatocellular carcinoma, dosed 102 weeks", "result": 1800, "unit": "mg/kg/day"}, {"measurement": "TD50", "setting": "strain B6C3F1, males, inhaled, site: liver, lesion: hepatocellular adenoma, dosed 102 weeks", "result": 3480, "unit": "mg/kg/day"}, {"measurement": "TD50", "setting": "strain B6C3F1, males, inhaled, site: liver, lesion: hepatocellular carcinoma, dosed 102 weeks", "result": 2690, "unit": "mg/kg/day"}, {"measurement": "TD50", "setting": "strain B6C3F1, males, inhaled, site: lung, lesion: alveolar/bronchiolar adenoma + alveolar/bronchiolar carcinoma, dosed 102 weeks", "result": 920, "unit": "mg/kg/day"}, {"measurement": "TD50", "setting": "strain B6C3F1, males, inhaled, site: lung, lesion: alveolar/bronchiolar adenoma, dosed 102 weeks", "result": 1680, "unit": "mg/kg/day"}, {"measurement": "TD50", "setting": "strain B6C3F1, males, inhaled, site: lung, lesion: alveolar/bronchiolar carcinoma, dosed 102 weeks", "result": 1710, "unit": "mg/kg/day"}, {"measurement": "TD50", "setting": "strain Swiss, females, by gavage, site: lung, lesion: adenoma, dosed 64 weeks", "result": 7050, "unit": "mg/kg/day"}, {"measurement": "TD50", "setting": "strain Swiss, males, by gavage, site: lung, lesion: adenoma, dosed 64 weeks", "result": 916, "unit": "mg/kg/day"}]}]}
